Measured values published in patent US8569267B2, “Tetracyclic tetrahydrofuran derivatives containing cyclic amine side chain” (Janssen Pharmaceutica, NV, priority 2005, dated 2013).

Tests used:
[1] = molecular target: T1, NET (norepinephrine transporter) (Rattus norvegicus, UniProt Q63380); test: In vitro determination of NET reuptake inhibition ([3H]Nixosetine binding, rat brain cortex); settings: rat brain cortex
T1 construct: Cortex from rat brain was collected and homogenised; from tissue; host or cells: rat brain cortex
Outline: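 Rat cortex homogenised in Tris 50 mM, NaCl 120 mM, KCl 5 mM, pH 7.4 was used for competition binding against [3H]nisoxetine. Bound radioligand was collected by filtration on GF/B filters and counted by scintillation. Percentage specific binding and competition curves were derived.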

[2] = molecular target: T2, human cloned 5-HT2C receptor, expressed in CHO cells (Homo sapiens, UniProt P28335); test: In vitro binding affinity for 5-HT2C receptor ([3H]mesulergine radioligand binding); settings: human cloned 5-HT2C receptor
T2 construct: expressed in transfected cells; host or cells: CHO cells
T2 sequence (P28335 33-458): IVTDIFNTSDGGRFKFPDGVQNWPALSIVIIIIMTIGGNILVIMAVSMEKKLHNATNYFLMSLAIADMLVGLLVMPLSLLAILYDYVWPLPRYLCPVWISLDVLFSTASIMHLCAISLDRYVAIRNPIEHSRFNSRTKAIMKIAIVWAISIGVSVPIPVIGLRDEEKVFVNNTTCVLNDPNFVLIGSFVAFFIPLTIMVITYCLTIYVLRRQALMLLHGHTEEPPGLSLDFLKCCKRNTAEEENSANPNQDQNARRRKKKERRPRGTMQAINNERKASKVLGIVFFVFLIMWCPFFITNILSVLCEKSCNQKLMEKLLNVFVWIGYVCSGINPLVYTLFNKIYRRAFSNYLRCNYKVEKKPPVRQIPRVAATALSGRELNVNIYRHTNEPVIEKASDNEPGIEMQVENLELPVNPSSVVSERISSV
Outline: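 Competition radioligand binding: varying test-compound concentrations incubated with receptor preparation and radioligand to binding equilibrium. Bound radioactivity separated from free and counted; affinity inferred from concentration-dependent inhibition of radioligand binding.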

[3] = molecular target: T3, human cloned 5-HT2A receptor, expressed in L929 cells (Homo sapiens, UniProt P28223); test: In vitro binding affinity for 5-HT2A receptor ([125I]R91150 radioligand binding); settings: human cloned 5-HT2A receptor in L929 cells, [125I]R91150
T3 construct: expressed in transfected cells; host or cells: L929 cells
Outline: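 Competition radioligand binding to human cloned 5-HT2A receptor expressed in L929 cells, using [125I]R91150 with test compound at various concentrations. At equilibrium, receptor-bound radioactivity was separated from free and counted. Affinity reflects inhibition of radioligand binding.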

[4] = molecular target: T4, human Dopamine D2L receptor (Homo sapiens, UniProt P14416); test: In vitro binding affinity for human D2L receptor ([3H]Spiperone binding); settings: human D2L receptor-transfected CHO cell membranes
T4 construct: expressed in transfected cells; host or cells: CHO cells
Outline: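 Membranes from CHO cells transfected with the receptor were incubated with [3H]Spiperone (diluted to 2 nmol/L before addition) and compound for 30 min at 37° C. Buffer was Tris-HCl, pH 7.7, with NaCl, CaCl2, MgCl2 and KCl, and non-specific binding was defined with 10^−6 mol/l Butaclamol. Bound radioactivity was collected by filtration, counted by scintillation, and competition curves calculated as percent specific binding.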

T1 sequence (Q63380 1-617): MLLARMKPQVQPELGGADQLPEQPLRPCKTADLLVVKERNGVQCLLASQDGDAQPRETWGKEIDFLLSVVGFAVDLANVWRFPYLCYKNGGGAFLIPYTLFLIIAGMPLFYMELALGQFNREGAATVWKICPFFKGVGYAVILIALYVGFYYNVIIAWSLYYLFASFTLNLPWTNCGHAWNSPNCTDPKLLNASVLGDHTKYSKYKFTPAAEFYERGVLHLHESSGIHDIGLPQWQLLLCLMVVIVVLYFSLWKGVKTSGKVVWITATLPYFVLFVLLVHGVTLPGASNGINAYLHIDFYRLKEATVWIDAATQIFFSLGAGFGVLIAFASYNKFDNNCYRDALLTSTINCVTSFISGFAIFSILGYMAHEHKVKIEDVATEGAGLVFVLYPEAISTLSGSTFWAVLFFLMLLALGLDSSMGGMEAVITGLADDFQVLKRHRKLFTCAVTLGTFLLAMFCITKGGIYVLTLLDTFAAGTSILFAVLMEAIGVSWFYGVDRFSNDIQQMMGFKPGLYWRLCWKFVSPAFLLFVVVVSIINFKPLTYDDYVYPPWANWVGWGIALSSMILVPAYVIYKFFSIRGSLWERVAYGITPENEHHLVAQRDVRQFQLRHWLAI
T4 sequence (P14416 whole entry): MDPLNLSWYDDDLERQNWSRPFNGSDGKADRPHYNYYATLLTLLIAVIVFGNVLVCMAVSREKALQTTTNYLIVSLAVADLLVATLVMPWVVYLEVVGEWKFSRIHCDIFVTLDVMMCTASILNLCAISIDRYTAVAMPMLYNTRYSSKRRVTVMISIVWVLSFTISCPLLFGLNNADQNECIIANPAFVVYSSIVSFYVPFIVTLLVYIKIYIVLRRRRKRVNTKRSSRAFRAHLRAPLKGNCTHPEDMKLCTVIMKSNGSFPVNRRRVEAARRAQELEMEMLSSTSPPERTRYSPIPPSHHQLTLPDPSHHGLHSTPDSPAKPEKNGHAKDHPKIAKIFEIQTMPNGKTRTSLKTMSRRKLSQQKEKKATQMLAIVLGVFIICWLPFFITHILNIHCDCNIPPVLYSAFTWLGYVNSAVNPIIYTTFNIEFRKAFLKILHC
T3 sequence (P28223 whole entry): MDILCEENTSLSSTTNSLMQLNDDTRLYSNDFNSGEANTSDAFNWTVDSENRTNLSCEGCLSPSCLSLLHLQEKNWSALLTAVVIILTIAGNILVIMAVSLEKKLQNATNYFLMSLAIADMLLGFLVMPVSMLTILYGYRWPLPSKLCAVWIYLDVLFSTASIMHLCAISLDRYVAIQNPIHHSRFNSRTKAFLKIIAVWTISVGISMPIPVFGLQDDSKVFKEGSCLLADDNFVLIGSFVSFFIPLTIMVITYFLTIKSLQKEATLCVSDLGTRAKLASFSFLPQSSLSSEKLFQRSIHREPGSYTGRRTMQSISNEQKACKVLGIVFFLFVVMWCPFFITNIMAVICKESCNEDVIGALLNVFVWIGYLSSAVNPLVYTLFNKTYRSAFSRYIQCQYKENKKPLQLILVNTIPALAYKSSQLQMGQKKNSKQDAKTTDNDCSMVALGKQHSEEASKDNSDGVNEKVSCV

Row | SMILES | NET pIC50 [1] | 5-HT2C pIC50 [2] | 5-HT2A pIC50 [3] | D2L pIC50 [4]
1 | CC(=O)OCCN1[C@H](C)CN(C[C@H]2C[C@@H]3c4ccccc4Cc4ccc(F)cc4[C@@H]3O2)C[C@@H]1C.O=C(O)C(=O)O [Compound 281] | <5 | 7.87 | 8.39 | 7.74
2 | O=C(O)C(=O)O.OC1CCN(CC2CC3c4ccccc4Oc4ccc(Cl)cc4C3O2)CC1 (stereo not shown) [Compound 284] | <5 | 7.38 | 7.98 | 7.14
3 | O=C(O)C(=O)O.OC1CCN(CC2CC3c4ccccc4Oc4ccc(Cl)cc4C3O2)CC1 (stereo not shown) [Compound 285] | <5 | 7.76 | 8.56 | 7.49
4 | O=C(O)C(=O)O.OC1CCN(CC2CC3c4ccccc4Oc4ccc(Br)cc4C3O2)CC1 (stereo not shown) [Compound 286] | <5 | 7.81 | 8.33 | 7.50
